Measured values reported in patent publication US20250312357A1, “PROCESS OF PHYTOCA[…] FORMULATION AND USE IN THE MANAGEMENT OF PAIN” (COUNCIL OF SCIENTIFIC & INDUSTRIAL RESEARCH, priority 2022, published 2025).

What was measured:
[1] = tested on: thermal nociceptive response; test: Tail flick assay for thermal nociceptive response; assay type: in vivo, female BALB/c mice; settings: fractions 10 mg/kg p.o., diclofenac sodium 50 mg/kg i.p.
Experimental: b. In-vivo efficacy study in pain model using the tail flick Assay for assessment of thermal nociceptive response in female BALB/c mice
Tail Flick Test: Prior to starting the test, the intensity of the beam was adjusted to produce a latency of approximately 3-6 sec. The was performed three times for each animal, at 3- to 5-min intervals, and the average of the three times recorded as the average reaction time (seconds). The light beam was delivered about 15 mm from the tip of the tail for mice. To minimize the chance of tissue trauma from heat exposure, a cut-off time of 10 sec was established, at which time the animal was removed from the test (Curr. Protoc. Neurosci., 2007, 41, 8.9.1). Mice were treated with diclofenac sodium (50 mg/kg. i.p.), a standard analgesic drug, CS-016-C2-F2-F2-F2 (10 mg/kg. p.o), CS-016-C2-F2-F3-F2 (10 mg/kg, p.o). and CS-016-B2 (10 mg/kg, p.o) each group contained three animals (n=3).
Tail Flick Assay in Female BALB/c Mice. […] The data were analysed using graph-pad prism software (8.0.2). […]

[2] = tested on: paclitaxel (PT) induced neuropathic pain; test: Randall Selitto test for mechanical hyperalgesia in paclitaxel induced neuropathic (cancer) pain model; assay type: in vivo, male BALB/c mice; settings: paclitaxel 2 mg/kg i.p. (pain induction), all groups; FIGS. 7a and 7b
Experimental: a. In-Vivo Efficacy Study in Cancer Pain Model Using the Randall Selitto Test for Assessment of Mechanical Hyperalgesia in Male BALB/c Mice
Animals: Male BALB/C mice of weight range 25-30 g were used for evaluation of CS-016-B1 in paclitaxel (PT) induced neuropathic pain. Animals were housed under a 12-hour light/dark cycle in a temperature (65-75° F.; ^˜18-23° C.) and humidity-controlled (40-60%) environment. They were supplied with free access to the food and water (ad libitum). Prior to initiation of study all the animals were acclimatized for one week under standard laboratory conditions, animals were drug naive with no prior procedures performed. All testing were performed from 1 to 4 p.m. […]
Development of neuropathic pain in mice: Neuropathic pain in BALB/C mice was induced by intraperitoneal (i.p.) administration of Paclitaxel (PT) at 2 mg/kg for consecutive 5 days (Sci. Rep., 2014, 4, 1). Before paclitaxel injection baseline values of pain threshold for all the animals were recorded. […]
Experimental protocol: The present study was comprised of five experimental groups. […] Pain threshold was assessed using Randall Selitto for assessment of mechanical hyperalgesia at different time points like 0, 5th, 10th, and 15th days post dosing. […]
Randall Selitto Test: The nociceptive withdrawal threshold was assessed by using the Randall-Selitto algesimeter (Analgesy-Meter, Ugo Basile). […]

Row | SMILES | latency time at 4 h relative to baseline ([1]; 4 h after treatment) | time till which the effect on latency time sustained [1] | mechanical threshold compared with the baseline data [2]
1 | O=C(O)Cc1ccccc1Nc1c(Cl)cccc1Cl [diclofenac sodium] | comparable to that of baseline data | 3 h | –
2 | CC(=O)O[C@H]1C(=O)[C@@]2(C)[C@H]([C@H](OC(=O)c3ccccc3)[C@]3(O)C[C@H](OC(=O)[C@H](O)[C@@H](NC(=O)c4ccccc4)c4ccccc4)C(C)=C1C3(C)C)[C@]1(OC(C)=O)CO[C@@H]1C[C@@H]2O [paclitaxel] | – | – | significant reduction in mechanical threshold
